Counter-ions that a name gives are not always drawn.
Legend:
MMP-1 = biological target: T1, MMP-1 (Homo sapiens, UniProt P03956); assay: In vitro MMP inhibition, IC50 determination (fluorogenic substrate I); assay type: biochemical; conditions: values in parenthesis; 4 μM substrate I; room temperature
T1 construct: made in house; host or cells: MMP-1-transfected HT-1080 cells (spent media)
T1 sequence (P03956 100-469): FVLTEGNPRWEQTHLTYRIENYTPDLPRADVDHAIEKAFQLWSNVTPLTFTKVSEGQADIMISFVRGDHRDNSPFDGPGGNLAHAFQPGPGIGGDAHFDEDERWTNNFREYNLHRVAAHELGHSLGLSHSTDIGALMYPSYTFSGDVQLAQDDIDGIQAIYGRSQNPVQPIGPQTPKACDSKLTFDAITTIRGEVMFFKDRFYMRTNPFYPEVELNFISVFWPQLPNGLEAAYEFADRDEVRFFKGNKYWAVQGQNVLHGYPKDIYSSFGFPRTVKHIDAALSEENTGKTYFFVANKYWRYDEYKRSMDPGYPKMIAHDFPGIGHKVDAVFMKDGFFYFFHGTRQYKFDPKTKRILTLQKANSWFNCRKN
Description: Several hydroxamic acids and salts thereof were analyzed in in vitro assays to determine their ability to inhibit the MMP cleavage of peptide substrates. […] and IC50 constants were calculated from the assayed hydroxamic acid-MMP interactions. Human recombinant MMP-1, MMP-2, MMP-9, MMP-13, and MMP-14 were used in this assay. All enzymes were prepared in Assignee's laboratories following usual laboratory procedures. Protocols for the preparation and use of these enzymes are available in the scientific literature. See, e.g., Enzyme Nomenclature (Academic Press, San Diego, Calif., 1992) (and the citations therein). See also, Freije et al., “Molecular cloning and expression of collagenase-3, a novel human matrix metalloproteinase produced by breast carcinomas,” J Biol. Chem., 269(24), 16766-16773 (1994). The MMP-1 proenzyme was purified from the spent media of MMP-1-transfected HT-1080 cells provided by Dr. Harold Welgus of Washington University (St. Louis, Mo.). The protein was purified on a zinc chelating column. All MMPs were activated using 4-aminophenylmercuric acetate (“APMA”, Sigma Chemical, St. Louis, Mo.) or trypsin. MMP-9 also was activated using human recombinant MMP-3 (purified in Assignee's laboratory following standard cloning and purification techniques). […] Substrate (I) was purchased from Baychem (Redwood City, Calif.), and substrate II was prepared Assignee's laboratory. Substrate I was used in the IC50 determination assays, while substrate II was used in the Ki determination assays. In the absence of MMP inhibitory activity, either substrate is cleaved at the Gly-Leu peptide bond. […] The stock solutions of the assayed hydroxamic acids (or salts thereof) were prepared in 1% dimethyl sulfoxide (DMSO). […] The experiment controls contained the same amount of Buffer A/DMSO as the assayed sample, but contained no hydroxamic acid (or salt thereof). The assays from which the IC50 determinations were made were performed as follows. […] Louis, Mo.). The assayed hydroxamic acid samples were incubated in MicrofluorTM White Plates (Dynatech, Chantilly, Va.) and analyzed on a Perkin Elmer […] plate reader (Norwalk, Conn.). The excitation wavelength was 328 nm, and the emission wavelength-415 nm. […] As stated in the previous paragraph, samples containing varying concentrations of the same assayed hydroxamic acid were prepared. Inhibition was measured as a reduction in fluorescent intensity as a function of MMP inhibitor concentration. […] All values in Table 2 are given in nM units. The IC50 measurements are in parenthesis.

MMP-9 = biological target: T2, MMP-9 (Homo sapiens, UniProt P14780); assay: as above; assay type: biochemical; conditions: values in parenthesis; 4 μM substrate I; room temperature
T2 construct: made in house; host or cells: MMP-9-transfected HT1080 cells (spent media)
T2 sequence (P14780 107-707 limits assumed): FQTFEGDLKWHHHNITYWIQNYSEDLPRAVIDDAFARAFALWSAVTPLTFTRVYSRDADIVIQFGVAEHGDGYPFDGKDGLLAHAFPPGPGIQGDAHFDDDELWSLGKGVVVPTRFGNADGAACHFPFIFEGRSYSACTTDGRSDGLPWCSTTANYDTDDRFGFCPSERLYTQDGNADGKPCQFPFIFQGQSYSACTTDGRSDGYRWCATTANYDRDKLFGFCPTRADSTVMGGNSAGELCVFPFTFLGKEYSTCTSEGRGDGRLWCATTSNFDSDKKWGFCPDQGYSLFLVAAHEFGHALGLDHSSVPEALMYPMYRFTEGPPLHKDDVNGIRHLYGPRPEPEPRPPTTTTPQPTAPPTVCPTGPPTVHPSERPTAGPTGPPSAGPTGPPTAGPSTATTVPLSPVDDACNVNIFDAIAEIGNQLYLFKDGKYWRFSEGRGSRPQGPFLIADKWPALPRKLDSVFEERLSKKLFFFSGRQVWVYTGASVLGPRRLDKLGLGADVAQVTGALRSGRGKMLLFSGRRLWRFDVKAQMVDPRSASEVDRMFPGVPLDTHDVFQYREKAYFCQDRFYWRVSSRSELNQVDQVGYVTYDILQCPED
Description: Several hydroxamic acids and salts thereof were analyzed in in vitro assays to determine their ability to inhibit the MMP cleavage of peptide substrates. […] and IC50 constants were calculated from the assayed hydroxamic acid-MMP interactions. Human recombinant MMP-1, MMP-2, MMP-9, MMP-13, and MMP-14 were used in this assay. All enzymes were prepared in Assignee's laboratories following usual laboratory procedures. Protocols for the preparation and use of these enzymes are available in the scientific literature. See, e.g., Enzyme Nomenclature (Academic Press, San Diego, Calif., 1992) (and the citations therein). See also, Freije et al., “Molecular cloning and expression of collagenase-3, a novel human matrix metalloproteinase produced by breast carcinomas,” J Biol. Chem., 269(24), 16766-16773 (1994). The MMP-9 proenzyme was purified by gelatin Sepharose chromatography from spent media of MMP-9-transfected HT1080 cells provided by Dr. Howard Welgus of Washington University (St. Louis, Mo.). All MMPs were activated using 4-aminophenylmercuric acetate (“APMA”, Sigma Chemical, St. Louis, Mo.) or trypsin. MMP-9 also was activated using human recombinant MMP-3 (purified in Assignee's laboratory following standard cloning and purification techniques). […] Substrate (I) was purchased from Baychem (Redwood City, Calif.), and substrate II was prepared Assignee's laboratory. Substrate I was used in the IC50 determination assays, while substrate II was used in the Ki determination assays. In the absence of MMP inhibitory activity, either substrate is cleaved at the Gly-Leu peptide bond. […] The stock solutions of the assayed hydroxamic acids (or salts thereof) were prepared in 1% dimethyl sulfoxide (DMSO). […] The experiment controls contained the same amount of Buffer A/DMSO as the assayed sample, but contained no hydroxamic acid (or salt thereof). The assays from which the IC50 determinations were made were performed as follows. […] Louis, Mo.). The assayed hydroxamic acid samples were incubated in MicrofluorTM White Plates (Dynatech, Chantilly, Va.) and analyzed on a Perkin Elmer […] plate reader (Norwalk, Conn.). The excitation wavelength was 328 nm, and the emission wavelength-415 nm. […] As stated in the previous paragraph, samples containing varying concentrations of the same assayed hydroxamic acid were prepared. Inhibition was measured as a reduction in fluorescent intensity as a function of MMP inhibitor concentration. […] All values in Table 2 are given in nM units. The IC50 measurements are in parenthesis.

Structure (SMILES): CCCCc1ccc(N2CCN(S(=O)(=O)C3(C(=O)NO)CCN(CCOC)CC3)CC2)cc1 [Example 5, 4-{[4-(4-butylphenyl)piperazin-1-yl]sulfonyl}-N-hydroxy-1-(2-methoxyethyl)piperidine-4-carboxamide Dihydrochloride]
- IC50 (MMP-1): > 10000 nM
- IC50 (MMP-9): < 0.1 nM

Structure (SMILES): CCCCCc1ccc(N2CCN(S(=O)(=O)C3(C(=O)NO)CCN(CCOC)CC3)CC2)cc1 [Example 6, N-Hydroxy-1-(2-methoxyethyl)-4-{[4-(4-pentylphenyl)piperazin-1-yl]sulfonyl}piperidine-4-carboxamide Dihydrochloride]
- IC50 (MMP-1): > 10000 nM
- IC50 (MMP-9): 0.2 nM

Structure (SMILES): O=C(NO)C1(S(=O)(=O)N2CCN(c3ccc(OCC4CC4)c(F)c3)CC2)CCN(C2CC2)CC1 [Example 10, 1-cyclopropyl-4-[[4-[4-(cyclopropylmethoxy)-3-fluorophenyl]-1-piperazinyl]sulfonyl]-N-hydroxy-4-piperidinecarboxamide, dihydrochloride]
- IC50 (MMP-1): > 10000 nM
- IC50 (MMP-9): 0.3 nM

Structure (SMILES): CCCCOc1ccc(N2CCN(S(=O)(=O)C3(C(=O)NO)CCN(CCOC)CC3)CC2)cc1F [Example 11, 4-[[4-(4-butoxy-3-fluorophenyl)-1-piperazinyl]sulfonyl]-N-hydroxy-1-(2-methoxyethyl)-4-piperidinecarboxamide, Dihydrochloride]
- IC50 (MMP-1): > 10000 nM
- IC50 (MMP-9): 2.3 nM

Structure (SMILES): CCCCCc1ccc(C2CCN(S(=O)(=O)C3(C(=O)NO)CCN(CCOC)CC3)CC2)cc1 [Example 15, N-hydroxy-1-(2-methoxyethyl)-4-{[4-(4-pentylpheyl)piperidin-1-yl]sulfonyl}piperidine-4-carboxamide Hydrochloride]
- IC50 (MMP-1): > 10000 nM
- IC50 (MMP-9): 0.3 nM
